Test results as given in patent US20260027116A1, “Methods of Treating Chronic Graft-Versus-Host Disease Following Allogeneic Hematopoietic Stem Cell Transplantation” (Kadmon Corporation, LLC, priority 2022, published 2026).

Legend:
lung function = assay: Example 1: percent predicted FVC change from baseline; format: in vivo, human; details: mean (SD)
Procedure: Change From Baseline in Percent Predicted Forced Vital Capacity (FVC) at Each Specified Time Points. FVC was the total amount of air (in liters) exhaled from the lungs during the lung function test measured by spirometer which assessed the change in lung function related to the disease status. Baseline value was defined as valid and last non-missing value obtained within 28 days prior to participant receiving first study medication. EOT visit was performed within 3 days after the participant's last dose of study drug. […] Analysis was performed on mITT population. Here, ‘number analyzed’=participants with available data for each specified category. Here, ‘0’ in the number analyzed field signifies that none of the participants were available for the analysis at the specified time points.

CYP1A2 = target: T1, CYP1A2 (Homo sapiens, UniProt P05177); assay: enzyme inhibition in vitro; format: in vitro ADME
T1 sequence (P05177 1-516): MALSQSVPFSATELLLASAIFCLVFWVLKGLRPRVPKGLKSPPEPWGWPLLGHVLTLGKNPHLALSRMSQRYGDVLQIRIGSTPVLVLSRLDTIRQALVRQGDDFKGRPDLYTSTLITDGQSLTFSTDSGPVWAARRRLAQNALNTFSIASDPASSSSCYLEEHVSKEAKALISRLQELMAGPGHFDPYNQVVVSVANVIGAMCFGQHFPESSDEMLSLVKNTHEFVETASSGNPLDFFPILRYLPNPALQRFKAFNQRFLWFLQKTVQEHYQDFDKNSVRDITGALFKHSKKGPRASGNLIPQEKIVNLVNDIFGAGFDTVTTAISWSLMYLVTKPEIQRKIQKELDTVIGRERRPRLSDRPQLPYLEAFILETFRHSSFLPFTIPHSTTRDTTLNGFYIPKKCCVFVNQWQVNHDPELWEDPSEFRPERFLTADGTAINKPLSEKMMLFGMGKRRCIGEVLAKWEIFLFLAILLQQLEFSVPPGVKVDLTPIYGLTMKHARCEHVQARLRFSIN

CYP2C19 = CYP2C19 (Homo sapiens, UniProt P33261); assay: enzyme inhibition in vitro; format: in vitro ADME
Sequence of CYP2C19 (P33261 whole entry): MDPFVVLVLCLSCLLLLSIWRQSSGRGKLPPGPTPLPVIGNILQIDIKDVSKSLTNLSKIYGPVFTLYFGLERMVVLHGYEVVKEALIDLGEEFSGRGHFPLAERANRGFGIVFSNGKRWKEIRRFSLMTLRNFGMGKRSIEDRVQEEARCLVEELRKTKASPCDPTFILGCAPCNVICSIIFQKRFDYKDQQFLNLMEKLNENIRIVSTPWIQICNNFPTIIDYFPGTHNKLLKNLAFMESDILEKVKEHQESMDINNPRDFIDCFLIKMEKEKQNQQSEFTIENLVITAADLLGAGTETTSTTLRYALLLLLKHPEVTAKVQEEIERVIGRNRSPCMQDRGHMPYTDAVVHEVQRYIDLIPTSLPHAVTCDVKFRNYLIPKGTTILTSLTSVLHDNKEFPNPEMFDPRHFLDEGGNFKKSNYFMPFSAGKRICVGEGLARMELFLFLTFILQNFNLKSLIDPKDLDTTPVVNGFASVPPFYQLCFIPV

**Q.** How did the “Change From Baseline in Percent Predicted Forced Vital Capacity (FVC)” value (lung function; Cohort 2: 200 mg BID, Cycle 14, Day 1) turn out when `CC(C)NC(=O)COc1cccc(-c2nc(Nc3ccc4[nH]ncc4c3)c3ccccc3n2)c1` [Belumosudil, 2-{3-[4-(1H-indazol-5-ylamino)-2-quinazolinyl]phenoxy}-N-(propan-2-yl) acetamide] was run?
**A.** The value was 2.0 (— ) percent predicted FVC.

**Q.** What about the “Change From Baseline in Percent Predicted Forced Vital Capacity (FVC)” value (lung function; Cohort 2: 200 mg BID, Cycle 15, Day 1) of the same compound?
**A.** Its value is −3.3 (5.5) percent predicted FVC.

**Q.** And the “Change From Baseline in Percent Predicted Forced Vital Capacity (FVC)” value (lung function; Cohort 2: 200 mg BID, Cycle 16, Day 1)?
**A.** The value was −6.0 (19.8) percent predicted FVC.

**Q.** And the “Change From Baseline in Percent Predicted Forced Vital Capacity (FVC)” value (lung function; Cohort 2: 200 mg BID, Cycle 17, Day 1)?
**A.** The value was −3.0 (11.8) percent predicted FVC.

**Q.** And the “Change From Baseline in Percent Predicted Forced Vital Capacity (FVC)” value (lung function; Cohort 2: 200 mg BID, Cycle 18, Day 1)?
**A.** The value was −7.5 (9.2) percent predicted FVC.

**Q.** And the “Change From Baseline in Percent Predicted Forced Vital Capacity (FVC)” value (lung function; Cohort 2: 200 mg BID, Cycle 19, Day 1)?
**A.** The value was −5.3 (4.7) percent predicted FVC.

**Q.** And the “Change From Baseline in Percent Predicted Forced Vital Capacity (FVC)” value (lung function; Cohort 2: 200 mg BID, Cycle 20, Day 1)?
**A.** Its value is −10.5 (2.1) percent predicted FVC.

**Q.** What about the “Change From Baseline in Percent Predicted Forced Vital Capacity (FVC)” value (lung function; Cohort 2: 200 mg BID, Cycle 21, Day 1) of the same compound?
**A.** Its value is −3.0 (—) percent predicted FVC.

**Q.** What about the “Change From Baseline in Percent Predicted Forced Vital Capacity (FVC)” value (lung function; Cohort 2: 200 mg BID, Cycle 22, Day 1) of the same compound?
**A.** The value was −11.0 (0.0) percent predicted FVC.

**Q.** And the “Change From Baseline in Percent Predicted Forced Vital Capacity (FVC)” value (lung function; Cohort 2: 200 mg BID, Cycle 23, Day 1)?
**A.** The value was −11.0 (2.8) percent predicted FVC.

**Q.** What about the “Change From Baseline in Percent Predicted Forced Vital Capacity (FVC)” value (lung function; Cohort 2: 200 mg BID, Cycle 24, Day 1) of the same compound?
**A.** Its value is −13.0 (—) percent predicted FVC.

**Q.** What about the “Change From Baseline in Percent Predicted Forced Vital Capacity (FVC)” value (lung function; Cohort 2: 200 mg BID, Cycle 25, Day 1) of the same compound?
**A.** Its value is −10.5 (3.5) percent predicted FVC.

**Q.** What about the “Change From Baseline in Percent Predicted Forced Vital Capacity (FVC)” value (lung function; Cohort 2: 200 mg BID, Cycle 27, Day 1) of the same compound?
**A.** Its value is −18.0 (12.7) percent predicted FVC.

**Q.** What about the “Change From Baseline in Percent Predicted Forced Vital Capacity (FVC)” value (lung function; Cohort 2: 200 mg BID, Cycle 29, Day 1) of the same compound?
**A.** The value was −11.0 (—) percent predicted FVC.

**Q.** What about the “Change From Baseline in Percent Predicted Forced Vital Capacity (FVC)” value (lung function; Cohort 2: 200 mg BID, Cycle 31, Day 1) of the same compound?
**A.** The value was −15.5 (7.8) percent predicted FVC.

**Q.** What about the “Change From Baseline in Percent Predicted Forced Vital Capacity (FVC)” value (lung function; Cohort 2: 200 mg BID, Cycle 33, Day 1) of the same compound?
**A.** Its value is −17.5 (7.8) percent predicted FVC.

**Q.** And the “Change From Baseline in Percent Predicted Forced Vital Capacity (FVC)” value (lung function; Cohort 2: 200 mg BID, Cycle 35, Day 1)?
**A.** Its value is −15.0 (11.3) percent predicted FVC.

**Q.** And the “Change From Baseline in Percent Predicted Forced Vital Capacity (FVC)” value (lung function; Cohort 2: 200 mg BID, EOT)?
**A.** The value was −8.4 (9.2) percent predicted FVC.

**Q.** What about the “Change From Baseline in Percent Predicted Forced Vital Capacity (FVC)” value (lung function; Cohort 3: 400 mg QD, Cycle 2, Day 1) of the same compound?
**A.** The value was −5.5 (9.9) percent predicted FVC.

**Q.** What about the “Change From Baseline in Percent Predicted Forced Vital Capacity (FVC)” value (lung function; Cohort 3: 400 mg QD, Cycle 3, Day 1) of the same compound?
**A.** The value was −3.0 (6.7) percent predicted FVC.

**Q.** And the “Change From Baseline in Percent Predicted Forced Vital Capacity (FVC)” value (lung function; Cohort 3: 400 mg QD, Cycle 4, Day 1)?
**A.** The value was −0.2 (8.6) percent predicted FVC.

**Q.** And the “Change From Baseline in Percent Predicted Forced Vital Capacity (FVC)” value (lung function; Cohort 3: 400 mg QD, Cycle 5, Day 1)?
**A.** The value was 1.6 (6.3) percent predicted FVC.

**Q.** And the “Change From Baseline in Percent Predicted Forced Vital Capacity (FVC)” value (lung function; Cohort 3: 400 mg QD, Cycle 6, Day 1)?
**A.** Its value is 0.8 (9.5) percent predicted FVC.

**Q.** What about the “Change From Baseline in Percent Predicted Forced Vital Capacity (FVC)” value (lung function; Cohort 3: 400 mg QD, Cycle 7, Day 1) of the same compound?
**A.** Its value is 2.3 (9.7) percent predicted FVC.

**Q.** And the “Change From Baseline in Percent Predicted Forced Vital Capacity (FVC)” value (lung function; Cohort 3: 400 mg QD, Cycle 8, Day 1)?
**A.** The value was 0.4 (8.9) percent predicted FVC.

**Q.** And the “Change From Baseline in Percent Predicted Forced Vital Capacity (FVC)” value (lung function; Cohort 3: 400 mg QD, Cycle 9, Day 1)?
**A.** The value was −0.8 (9.5) percent predicted FVC.

**Q.** And the “Change From Baseline in Percent Predicted Forced Vital Capacity (FVC)” value (lung function; Cohort 3: 400 mg QD, Cycle 10, Day 1)?
**A.** Its value is 4.7 (4.9) percent predicted FVC.

**Q.** And the “Change From Baseline in Percent Predicted Forced Vital Capacity (FVC)” value (lung function; Cohort 3: 400 mg QD, Cycle 11, Day 1)?
**A.** Its value is −4.4 (12.0) percent predicted FVC.

**Q.** What about the “Change From Baseline in Percent Predicted Forced Vital Capacity (FVC)” value (lung function; Cohort 3: 400 mg QD, Cycle 12, Day 1) of the same compound?
**A.** The value was 0.7 (5.8) percent predicted FVC.

**Q.** And the “Change From Baseline in Percent Predicted Forced Vital Capacity (FVC)” value (lung function; Cohort 3: 400 mg QD, Cycle 13, Day 1)?
**A.** The value was −4.9 (9.8) percent predicted FVC.

**Q.** What about the “Change From Baseline in Percent Predicted Forced Vital Capacity (FVC)” value (lung function; Cohort 3: 400 mg QD, Cycle 14, Day 1) of the same compound?
**A.** Its value is −2.7 (7.1) percent predicted FVC.

**Q.** And the “Change From Baseline in Percent Predicted Forced Vital Capacity (FVC)” value (lung function; Cohort 3: 400 mg QD, Cycle 15, Day 1)?
**A.** The value was −4.8 (11.5) percent predicted FVC.

**Q.** And the “Change From Baseline in Percent Predicted Forced Vital Capacity (FVC)” value (lung function; Cohort 3: 400 mg QD, Cycle 16, Day 1)?
**A.** Its value is −6.5 (6.5) percent predicted FVC.

**Q.** And the “Change From Baseline in Percent Predicted Forced Vital Capacity (FVC)” value (lung function; Cohort 3: 400 mg QD, Cycle 17, Day 1)?
**A.** Its value is −5.6 (12.8) percent predicted FVC.

**Q.** What about the “Change From Baseline in Percent Predicted Forced Vital Capacity (FVC)” value (lung function; Cohort 3: 400 mg QD, Cycle 18, Day 1) of the same compound?
**A.** Its value is 4.0 (4.0) percent predicted FVC.

**Q.** And the “Change From Baseline in Percent Predicted Forced Vital Capacity (FVC)” value (lung function; Cohort 3: 400 mg QD, Cycle 19, Day 1)?
**A.** The value was 0.8 (5.1) percent predicted FVC.

**Q.** And the “Change From Baseline in Percent Predicted Forced Vital Capacity (FVC)” value (lung function; Cohort 3: 400 mg QD, Cycle 20, Day 1)?
**A.** Its value is −2.0 (5.6) percent predicted FVC.

**Q.** And the “Change From Baseline in Percent Predicted Forced Vital Capacity (FVC)” value (lung function; Cohort 3: 400 mg QD, Cycle 21, Day 1)?
**A.** The value was −6.6 (17.0) percent predicted FVC.

**Q.** And the “Change From Baseline in Percent Predicted Forced Vital Capacity (FVC)” value (lung function; Cohort 3: 400 mg QD, Cycle 22, Day 1)?
**A.** Its value is −6.0 (8.5) percent predicted FVC.

**Q.** And the “Change From Baseline in Percent Predicted Forced Vital Capacity (FVC)” value (lung function; Cohort 3: 400 mg QD, Cycle 23, Day 1)?
**A.** Its value is −1.8 (10.6) percent predicted FVC.

**Q.** What about the “Change From Baseline in Percent Predicted Forced Vital Capacity (FVC)” value (lung function; Cohort 3: 400 mg QD, Cycle 24, Day 1) of the same compound?
**A.** The value was −15.0 (—) percent predicted FVC.

**Q.** What about the “Change From Baseline in Percent Predicted Forced Vital Capacity (FVC)” value (lung function; Cohort 3: 400 mg QD, Cycle 25, Day 1) of the same compound?
**A.** The value was −1.3 (11.7) percent predicted FVC.

**Q.** What about the “Change From Baseline in Percent Predicted Forced Vital Capacity (FVC)” value (lung function; Cohort 3: 400 mg QD, Cycle 27, Day 1) of the same compound?
**A.** The value was −4.0 (21.2) percent predicted FVC.

**Q.** And the “Change From Baseline in Percent Predicted Forced Vital Capacity (FVC)” value (lung function; Cohort 3: 400 mg QD, Cycle 29, Day 1)?
**A.** The value was 6.0 (1.4) percent predicted FVC.

**Q.** What about the “Change From Baseline in Percent Predicted Forced Vital Capacity (FVC)” value (lung function; Cohort 3: 400 mg QD, Cycle 31, Day 1) of the same compound?
**A.** Its value is −4.0 (—) percent predicted FVC.

**Q.** What about the “Change From Baseline in Percent Predicted Forced Vital Capacity (FVC)” value (lung function; Cohort 3: 400 mg QD, Cycle 35, Day 1) of the same compound?
**A.** Its value is −3.0 (—) percent predicted FVC.

**Q.** And the “Change From Baseline in Percent Predicted Forced Vital Capacity (FVC)” value (lung function; Cohort 3: 400 mg QD, Cycle 36, Day 1)?
**A.** Its value is 2.0 (—) percent predicted FVC.

**Q.** And the “Change From Baseline in Percent Predicted Forced Vital Capacity (FVC)” value (lung function; Cohort 3: 400 mg QD, Cycle 49, Day 1)?
**A.** The value was 2.0 (—) percent predicted FVC.

**Q.** What about the “Change From Baseline in Percent Predicted Forced Vital Capacity (FVC)” value (lung function; Cohort 3: 400 mg QD, EOT) of the same compound?
**A.** Its value is −7.8 (14.7) percent predicted FVC.

**Q.** And the “inhibition of CYP1A2” value (CYP1A2)?
**A.** Its value is “inhibitor”.

**Q.** And the “inhibition of CYP2C19” value (CYP2C19)?
**A.** The value was “inhibitor”.
